Several values for one entry are separate records, joined by “and”; a condition that tells them apart may be missing. Equal values may be shown once.
Experiments:
[1] = test system: NIH3T3 (mouse fibroblast) cell line; test: Basal cytotoxicity, neutral red uptake (NRU) assay, with LD50 estimated from IC50; format: cell-based
Description: The evaluation of the in vitro cytotoxicity (IC50, half maximal inhibitory concentration) of the abovementioned compounds and their structural derivatives was assessed using the standard colorimetric 3-(4,5-dimethylthiazol-2-yl)-2,5-diphenyltetrazolium bromide (MTT) assay on two monolayer tumour cell lines, namely HT-1080 (human connective tissue fibrosarcoma) and MH-22A (mouse hepatocarcinoma). Additionally, the impact of the compound on non-cancerous “normal” cells—mouse fibroblasts (NIH3T3)—was estimated in order to measure the basal toxicity (LD50, median lethal dose). The obtained results were used for investigation of the structure–activity relationships and exploration of the effect of substituents on cellular response and toxicity. The estimated LD50 gives information regarding the compound properties and could potentially be used to select promising compounds by providing a starting dose for in vivo experiments.
To assess basal cytotoxicity, the neutral red uptake (NRU) assay was conducted following a modified version of the standard protocol of Stokes’ [71], as validated by the NICEATM-ECVAM study. The NRU cytotoxicity assay determines the ability of viable cells to incorporate and bind a supravital dye, neutral red (NR).
NIH3T3 cells (9000 cells/well) were cultured in 96-well plates in DMEM medium supplemented with 5% FBS for 24 h. Subsequently, the cells were exposed to the test compounds over a range of seven concentrations (1000 µg/mL, 316 µg/mL, 100 µg/mL, 31 µg/mL, 10 µg/mL, 3.0 µg/mL, and 1.0 µg/mL) for 24 h. Untreated cells were used as a control. After the incubation period, the medium was removed from all plates and a solution of NR was added (250 µL, 0.05 mg/mL NR in DMEM 24 h pre-incubated at 37 °C and then filtered before use through a 0.22 µm syringe filter). The plates were incubated for 3 h, followed by three washes with phosphate-buffered saline (PBS). The cells were then treated with a mixture of ethanol (50%) and water (49%) supplemented with 1% acetic acid. The absorbance of NR was measured using a spectrophotometer multiplate reader (Infinite M1000; Tecan Austria GmbH, Salzburg, Austria) at 540 nm. The optical density (OD) was then calculated using the following formula: ODtreated cells×100/ODcontrol cells.
The IC50 values were calculated using the program Graph Pad Prism® 3.0.
In vitro test results were employed to estimate the starting dose for acute oral systemic toxicity tests in rodents (LD50). The LD50 value was calculated using the in vitro IC50 value and a following formula: logLD50(mM/kg)=0.439×logIC50(mM)+0.621
The value was then converted to mg/kg and the compounds classified into four toxicity categories. Category 1 (highly toxic): LD50 ≤ 5 mg/kg; Category 2 (moderately toxic): 5 < LD50 ≤ 50 mg/kg; Category 3 (slightly toxic): 50 < LD50 ≤ 300 mg/kg; Category 4 (practically non-toxic): 300 < LD50 ≤ 2000 mg/kg.

[2] = Self-assembling properties by dynamic light scattering (DLS); format: physicochemical; conditions: 0.1 mM in aqueous medium, ethanol injection, freshly prepared
Description: The estimation of self-assembling properties for the selected compounds was performed using dynamic light scattering (DLS) measurements. The values for the polydispersity index (PDI) and the hydrodynamic average diameter (Dav) of nanoparticles formed by compounds 6a,c–e,g were determined (with a final compound concentration of 0.1 mM in the aqueous medium). The nanoparticles were prepared by the ethanol injection method via the dissolution of the compound in ethanol and after that by the dispersion of the solution into water. The approach is rapid, simple, and can be easily scaled up. This method was previously used successfully for the preparation and characterisation of lipid-like pyridinium amphiphiles. The DLS measurements were performed for freshly prepared samples at room temperature.
The self-assembling properties of the tested compounds were estimated according to a published procedure with minor modifications. Stock solutions of the compounds were prepared in EtOH at a concentration of 1 mM. Stock solutions of the compounds (0.3 mL) were injected into 2.7 mL of deionised water with maximum stirring (IKA Vortex 2 (IKA, Staufen, Germany)) to obtain a final concentration of 0.1 mM. The DLS measurements of the nanoparticles in the aqueous solution were conducted using a Zetasizer Nano ZSP (Malvern Panalytical Ltd., Malvern, UK) instrument with Malvern Instruments Ltd. Software 8.01.4906. The measurements were performed with the following settings—medium: water; refractive index: 1.33; viscosity: 0.8872 cP; temperature: 25 °C; dielectric constant: 78.5; nanoparticles: liposomes; refractive index of materials: 1.60; detection angle: 173° wavelength: 633 nm. The obtained data were analysed using the multimodal number distribution software provided with the instrument. To ensure reproducibility, the measurements were performed in triplicate.

CCCCCCCCCCCCCCCC[n+]1ccc(C=CC=Cc2cc3c4c(c2)CCCN4CCC3)cc1.[Br-] [Compound 6e, 1-hexadecyl-4-(4-(2,3,6,7-tetrahydro-1H,5H-pyrido[3,2,1-ij]quinolin-9-yl)buta-1,3-dien-1-yl)pyridin-1-ium bromide]
times lower basal cytotoxicity than 6d ([1]; 6e versus 6d): ~ 2.8 times
basal toxicity classification in words ([1]; from estimated LD50, NIH3T3): harmful
Dav, nm (average diameter of formed nanoparticles) [2]: 118 nm and 118 ± 4 nm
PDI (polydispersity index) [2]: 0.260 ± 0.011

CCCCCCCCCCCCCCCC[n+]1ccc(C=CC=Cc2ccc(OC)cc2)cc1.[Br-] [Compound 6c, 1-hexadecyl-4-(4-(4-methoxyphenyl)buta-1,3-dien-1-yl)pyridin-1-ium bromide]
Dav, nm (average diameter of formed nanoparticles) [2]: 212 nm and 212 ± 4 nm
PDI (polydispersity index) [2]: 0.218 ± 0.026

CCCCCCCCCCCC[n+]1ccc(C=Cc2cc3c4c(c2)CCCN4CCC3)cc1.[Br-] [Compound 6d, 1-dodecyl-4-(2-(2,3,6,7-tetrahydro-1H,5H-pyrido[3,2,1-ij]quinolin-9-yl)vinyl)pyridin-1-ium bromide]
times higher basal cytotoxicity than compound 7a ([1]; 6d versus 7a): 6.5 times
PDI (polydispersity index) [2]: 0.286 ± 0.030

CCCCCCCCCCCCCCCC[n+]1ccc(C=Cc2cc(OC)c(OC)c(OC)c2)cc1.[Br-] [Compound 6b]
times more toxic than 6a, basal toxicity [1]: 2.8 times
Basal cytotoxicity (NIH3T3) LD50 ([1]; estimated from in vitro NRU IC50 (24 h) by log LD50 = 0.439 x log IC50 + 0.621): 91 ± 6 mg/kg
Basal cytotoxicity (NIH3T3) LD50 ([1]; mouse): 0.15 mM/kg

CCCCCCCCCCCC[n+]1ccc(C=Cc2cc(OC)c(OC)c(OC)c2)cc1.[Br-] [Compound 6a, 4-(3,4,5-trimethoxystyryl)-N-dodecylpyridinium bromide]
times decrease of basal toxicity of 6a compared with 6d ([1]; ratio of LD50 values): 1.5 times
PDI (polydispersity index) [2]: 0.331 ± 0.261

— article PMC10535741, “Styrylpyridinium Derivatives for Fluorescent Cell Imaging” (Pharmaceuticals, 2023)
